Results from PMC4391747 (Science translational medicine, 2012).

Tests used:
[1] = Solubility of MIV-150 in ring polymer; type: physicochemical
[2] = rat, in vivo; cited from earlier work

## CCC(=O)c1ccc(F)c([C@@H]2C[C@@H]2NC(=O)Nc2ccc(C#N)cn2)c1O [MIV-150]
[1]; DSC
  Solubility of MIV-150 in EVA-40: partially soluble
[1]; DSC of formulated ring segments and release studies with micronized MIV-150
  Solubility of MIV-150 in silicone: insoluble
[2]
  Time within which absorbed MIV-150 is cleared: ≤ 12 h
